Publication PMC3710586 (NeuroImage, 2010)
pIC50, pKd: −log10 of the molar value. Where “and” joins values, the source holds several entries; their conditions need not be identical. Equal entries are not always repeated. Entries after “also recorded” stand apart in the source; their conditions may differ. Where two headings read alike, the source gives them in different places.

Tests used:
[1] = ATX plasma levels; type: in vivo, rhesus monkey
[2] = rats; ref Mattiuz et al., 2003; Kielbasa et al., 2009; cited from earlier work
[3] = dogs; ref Mattiuz et al., 2003; cited from earlier work
[4] = humans; ref Sauer et al., 2003; cited from earlier work
[5] = test system: norepinephrine transporters (NET); settings: rhesus monkeys, cited from earlier work
[6] = test system: norepinephrine transporters (NET); settings: humans, cited from earlier work
[7] = humans, ref Logan et al., 2007, cited from earlier work
[8] = target: norepinephrine transporters (NET) (Macaca mulatta, UniProt Q9MYW8)
Sequence of norepinephrine transporters (NET) (Macaca mulatta, UniProt Q9MYW8) (Q9MYW8 1-617): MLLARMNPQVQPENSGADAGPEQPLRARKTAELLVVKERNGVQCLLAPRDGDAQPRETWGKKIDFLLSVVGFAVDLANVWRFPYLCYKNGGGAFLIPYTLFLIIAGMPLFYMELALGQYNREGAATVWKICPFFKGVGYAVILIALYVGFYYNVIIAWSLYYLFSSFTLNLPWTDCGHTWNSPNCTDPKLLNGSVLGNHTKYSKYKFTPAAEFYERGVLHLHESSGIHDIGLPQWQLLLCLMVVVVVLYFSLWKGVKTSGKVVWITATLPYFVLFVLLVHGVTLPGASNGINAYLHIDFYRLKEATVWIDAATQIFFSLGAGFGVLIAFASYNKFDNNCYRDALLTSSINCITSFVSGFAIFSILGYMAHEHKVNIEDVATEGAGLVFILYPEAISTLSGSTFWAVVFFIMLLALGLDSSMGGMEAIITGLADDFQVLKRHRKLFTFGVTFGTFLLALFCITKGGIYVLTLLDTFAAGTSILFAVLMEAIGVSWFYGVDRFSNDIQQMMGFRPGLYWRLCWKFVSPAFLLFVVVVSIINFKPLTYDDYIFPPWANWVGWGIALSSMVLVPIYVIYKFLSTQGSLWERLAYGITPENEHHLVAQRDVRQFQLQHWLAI

[9] = target: norepinephrine transporters (Homo sapiens, UniProt P23975); settings: read-out: MRB dissociation constant Kd, in vitro; ref Melloni et al., 1984; cited from earlier work
Sequence of norepinephrine transporters (P23975 whole entry): as the sequence (Q9MYW8 1-617) above, with S15N, A19T, V246I, I410V, I427V, G452S, V606I counted along it

[10] = [11C]MRB arterial input function and plasma metabolite analysis; type: in vivo, rhesus monkey; settings: for Fraction of unmetabolized [11C]MRB in plasma: n=10
[11] = [11C]MRB plasma free fraction by ultrafiltration; type: in vitro ADME, rhesus monkey
[12] = test system: norepinephrine transporters (NET); settings: for Global VND/fP estimate (four NET-rich regions): Eq. 5, shared across regions, rSE 22%
[13] = rhesus monkey, read-out: Percentage of occupancy of NET by ATX
[14] = ATX low dose, Day 2, MA1, one row per monkey
[15] = ATX medium dose, Day 1, MA1, one row per monkey
[16] = Baseline, Day 1, MA1, one row per monkey
[17] = after 40 mg of methylphenidate, n=9, ref Hannestad et al., 2010

For `CNCC[C@@H](Oc1ccccc1C)c1ccccc1` [ATX, atomoxetine], the “Percent change per hour of ATX plasma level during the PET scan” value ([1]; mono-exponential fit of 0-, 60-, 120-min samples) is listed as −1±6 %/h, the “Slope of regression of ATX plasma level versus maintenance infusion rate” value ([1]; r^2=0.902, n=7, intercept set to zero) is listed as 1.04 kg·h/L and 1.042 kg·h/L and the “Plasma free fraction of ATX” value [2] is listed as 11–13%. The “Plasma free fraction of ATX” value [3] was 3%, the “Plasma free fraction of ATX” value [4] was 1.3% and the “ATX IC50 in occupancy study using [18F]F-MeNER-D2” value ([5]; plasma, ref Takano et al., 2009a) was 0.016 µg/mL. The “Reduction of [11C]MRB average VT in the occipital cortex” value ([6]; after 100 mg of ATX, ref Logan et al., 2007) was 10%, the “Plasma levels of ATX” value ([7]; 25 mg oral ATX) was 116 ng/mL and the “Plasma levels of ATX” value ([7]; 50 mg oral ATX) was 206 ng/mL. The “Plasma levels of ATX” value ([7]; 100 mg oral ATX) was 421 ng/mL, the pIC50 ([8]; ATX IC50 using BPF, caudate as reference region, plasma concentration, rSE 16%) was 7.13 and the “Effect of ATX on [11C]MRB binding (VT/fP) in NET-rich regions” value ([8]; all monkeys, increasing ATX infusion doses) was “decreased in a dosedependent manner; also recorded: inhibited in a dose-dependent manner”. The “ATX occupancy estimate (Lassen plot)” value ([8]; monkey 1, high-dose scan) was 86±13%, the “ATX occupancy estimate (Lassen plot)” value ([8]; monkey 1, low-dose scan) was 31±10% and the “ATX occupancy estimate (Lassen plot)” value ([8]; monkey 1, medium-dose scan) was 56±7%. For the same compound, the “ATX occupancy estimate (Lassen plot)” value ([8]; monkey 2 (only medium-dose scan acquired)) was 65±18%, the “ATX occupancy estimate (Lassen plot)” value ([8]; monkey 3, high-dose scan) was 82±6% and the “ATX occupancy estimate (Lassen plot)” value ([8]; monkey 3, low-dose scan) was 39±14%. The “ATX occupancy estimate (Lassen plot)” value ([8]; monkey 3, medium-dose scan) was 63±7%, the ED50 ([8]; rhesus monkey, read-out: ATX ED50, dose) was 0.13 mg/kg and the receptor occupancy at 0.012 µg/mL [8, 13] was 27%. For the same compound, the receptor occupancy at 0.132 µg/mL [8, 13] was 80%.

In the case of `COc1ccccc1OC(c1ccccc1)C1CNCCO1` (centres unmarked) [MRB], the pKd [9] is listed as 8.60.

With `[11CH3]Oc1ccccc1O[C@@H](c1ccccc1)[C@@H]1CNCCO1` [[^11C]MRB, (S,S)-[^11C]methylreboxetine] the “Fraction of unmetabolized [11C]MRB in plasma” value ([10]; 20 min post-injection) was 42±8%, the “Fraction of unmetabolized [11C]MRB in plasma” value ([10]; 90 min post-injection) was 25±4% and the “Whole blood to plasma radioactivity concentration ratio” value ([10]; throughout the scans) was 0.94±0.13. For the same compound, the “Change of plasma free fraction fP from first to second scan of the day” value [11] was “+17%±10”, the “Day-to-day variability of plasma free fraction fP” value ([11]; monkey #1) was −16% and the “Day-to-day variability of plasma free fraction fP” value ([11]; monkey #3) was −68%. The “Distribution Volume VT, Caudate” value [12, 14] was 6.2 mL/cm^3 and 2.1 mL/cm^3, the “Distribution Volume VT, Midbrain” value [12, 14] was 9.0 mL/cm^3 and 3.0 mL/cm^3 and the “Distribution Volume VT, Putamen” value [12, 14] was 2.4 mL/cm^3 and 6.8 mL/cm^3. For the same compound, the “Distribution Volume VT, Anterior Cingulate” value [12, 15] was 11.0 mL/cm^3 and 8.7 mL/cm^3 and 8.3 mL/cm^3, the “Distribution Volume VT, Brainstem” value [12, 15] was 11.5 mL/cm^3 and 7.3 mL/cm^3 and 8.2 mL/cm^3 and the “Distribution Volume VT, Caudate” value [12, 15] was 8.7 mL/cm^3 and 6.5 mL/cm^3 and 6.3 mL/cm^3. The “Distribution Volume VT, Midbrain” value [12, 15] was 10.1 mL/cm^3 and 7.5 mL/cm^3 and 7.8 mL/cm^3, the “Distribution Volume VT, Occipital” value [12, 15] was 8.2 mL/cm^3 and 6.4 mL/cm^3 and 5.6 mL/cm^3 and the “Distribution Volume VT, Putamen” value [12, 15] was 7.2 mL/cm^3 and 9.9 mL/cm^3 and 8.7 mL/cm^3. For the same compound, the “Distribution Volume VT, Thalamus” value [12, 15] was 11.6 mL/cm^3 and 8.2 mL/cm^3 and 8.5 mL/cm^3, the “Distribution Volume VT, Anterior Cingulate” value [12, 16] was 13.3 mL/cm^3 and 10.1 mL/cm^3 and 10.9 mL/cm^3 and the “Distribution Volume VT, Brainstem” value [12, 16] was 16.3 mL/cm^3 and 10.2 mL/cm^3 and 11.1 mL/cm^3. For the same compound, the “Distribution Volume VT, Midbrain” value [12, 16] was 13.3 mL/cm^3 and 10.5 mL/cm^3 and 9.4 mL/cm^3, the “Distribution Volume VT, Occipital” value [12, 16] was 8.4 mL/cm^3 and 6.6 mL/cm^3 and 6.4 mL/cm^3 and the “Distribution Volume VT, Putamen” value [12, 16] was 6.3 mL/cm^3 and 8.9 mL/cm^3 and 6.6 mL/cm^3. For the same compound, the “Distribution Volume VT, Thalamus” value [12, 16] was 15.5 mL/cm^3 and 10.7 mL/cm^3 and 12.7 mL/cm^3, the “Distribution Volume VT, Caudate” value ([12]; Baseline, Day 1, MA1 t*=30 min, one row per monkey #1-#3) was 7.7 mL/cm^3 and 6.5 mL/cm^3 and 5.9 mL/cm^3 and the “VND/fP in the putamen” value ([12]; Bmax/Kd set to zero) was 30 mL/cm^3. For the same compound, the “Global VND/fP estimate (four NET-rich regions)” value [12] was 19±4 mL/cm^3, the “Global VND/fP estimate (four NET-rich regions)” value ([12]; listed as [^11C] MRB) was 19 mL/cm^3 and the “VND/fP estimate (four high binding regions plus occipital cortex)” value ([12]; Eq. 5, rSE 15%) was 19± 3 mL/cm^3. The “Binding potential BPND in the thalamus” value ([12]; baseline VT/fP divided by global VND/fP, minus one, n=3) was 1.8±0.3, the “Expected value of BPND in the thalamus” value ([12]; computed from in vitro Kd 2.5 nM, NET density 23–72 nM and fND) was 0.46–1.44 and the “Tissue free fraction fND” value ([12]; fND=fP/VND, from VND/fP 19 mL/cm^3) was about 5%. For the same compound, the “VT/fP after blockade by the highest dose of ATX, anterior cingulate cortex” value ([12]; n=2, unit not given) was 24±3, the “VT/fP after blockade by the highest dose of ATX, brainstem” value ([12]; n=2, unit not given) was 24±1 and the “VT/fP after blockade by the highest dose of ATX, midbrain” value ([12]; n=2, unit not given) was 23±1. The “VT/fP after blockade by the highest dose of ATX, thalamus” value ([12]; n=2, unit not given) was 26±3, the “Normalized distribution volume VT/fP at baseline, caudate nucleus” value ([12]; n=3) was 28±3 mL/cm^3 and the “Normalized distribution volume VT/fP at baseline, occipital cortex” value ([12]; n=3) was 30±2 mL/cm^3. The “Normalized distribution volume VT/fP at baseline, putamen” value ([12]; n=3) was 30±2 mL/cm^3 and the “Specific binding in the NET-poor regions (caudate, putamen and occipital)” value ([12]; or a higher non-specific binding) was at most 30%.

In the case of `[2H]C([2H])([18F])Oc1ccccc1O[C@@H](c1ccccc1)[C@H]1CNCCO1` [[^18F]MeNER-D2], the “BPND in the thalamus” value ([5]; ref Seneca et al., 2006) is given as 0.26±0.06 and the “BPND in the thalamus” value ([5]; ref Takano et al., 2009a,b) is given as 0.7±0.1.

In the case of `COC(=O)C(c1ccccc1)C1CCCCN1` (centres unmarked) [methylphenidate], the “Reduction of [11C]MRB VT in the occipital cortex” value [6, 17] is listed as 9±17% and the “Reduction of [11C]MRB VT/fP in the occipital cortex” value [6, 17] is listed as 5±15%.
